Measured values published in patent US6319929A, “Suksdorfin analogs, compositions thereof, and methods for making and using thereof” (priority 1998, dated 2001).
Where “and” joins values, the source holds several entries; their conditions need not be identical. Equal values may be shown once. Read-outs that look alike come from different tables or passages of the source.

Tests used:
[1] = system: chronically HIV-1 infected ACH-2 cells; assay: Virus expression from chronically HIV-1 infected T cell line ACH-2 (p24 antigen ELISA); format: cell-based
Experimental: (§1) Effects of suksdorfin analogs on Chronically HIV-1 infected cells. The experimental design is as follows: The phorbol ester, PMA (10^-8 M) and various concentrations of suksdorfin were either added or not added to both the chronically HIV-1 infected T cell line (ACH-2) and to the chronically HIV-1 infected monocytic cell line (U1). Cell-free supernatant was collected 72 hours post culture for p24 antigen ELISA.
Results (Table 11) from adding compound 16 to the chronically HIV-infected T cell line, ACH-2, according to methods in above examples. ACH-2 are a chronically HIV-1 infected T cell line. It was derived from A3.01 cells which is a subclone of the CEM cell line. The data below indicates the following points:
(§2) Chronically HIV-1 infected cell lines. HIV-1 chronically infected T cell line, ACH-2^12, and HIV-1 chronically infected promonocytic cell line, U1 13, were continuously maintained in RPMI 1640 with 10% fetal calf serum (FCS). For experiments, the cell lines were only used in the […] of growth. Cells (0.5×10^6 cells/well) and either various concentrations of suksdorfin or medium alone were added to 24-well plates in the presence or absence of PMA (10^-8 M). After 72 hours at 37° C. and 5% CO2, an aliquot of the cell-free supernatants were collected and analyzed for p24 antigen by ELISA (see below for details of p24 antigen ELISA).

[2] = system: HIV-1 replication in H9 cells; assay: HIV-1 replication inhibition in acutely infected H9 lymphocytes (p24 antigen ELISA); format: cell-based, HIV-1 (IIIB strain)
Outline: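 H9 T cells exposed to HIV-1 IIIB (0.01-0.1 TCID50/cell) for 1 h at 37° C, washed, then grown with compound for 3-4 days at 37° C. Toxicity taken from cell counts of uninfected cultures and virus from p24 ELISA of supernatants. EC50 and IC50 were read graphically from concentration versus percent inhibition plots.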

[3] = system: chronically HIV-1 infected U1 cells; assay: Virus expression from chronically HIV-1 infected monocytic cell line U1 (p24 antigen ELISA); format: cell-based
Experimental: as §1
Compound 16 was also assayed on ACH-2 (chronically HIV-1 infected T cell line). U1 cells are also chronically HIV-1 infected cells but they are from the monocytic cell line, U937. The data presented in Table 8 indicates the following points:
as §2

**Q.** `CC1(C)Oc2ccc3ccc(=O)oc3c2[C@@H](OC(=O)[C@@]23CC[C@@](C)(C(=O)O2)C3(C)C)[C@H]1OC(=O)[C@@]12CC[C@@](C)(C(=O)O1)C2(C)C` [Compound 16, 3',4'-Di-O-(-)-Camphanoyl-(+)-cis-Khellactone] was tested. Which P24 ([1]; ACH-2, +PMA, 0.0000102 μg/ml) did it give?
**A.** The P24 was 17,938 pg/ml.

**Q.** And the P24 ([1]; ACH-2, +PMA, 0.0000512 μg/ml)?
**A.** Its P24 is 16,079 pg/ml.

**Q.** What about the P24 ([1]; ACH-2, +PMA, 0.00025 μg/ml) of the same compound?
**A.** The P24 was 22,756 pg/ml.

**Q.** What about the P24 ([1]; ACH-2, +PMA, 0.00128 μg/ml) of the same compound?
**A.** Its P24 is 22,344 pg/ml.

**Q.** What about the P24 ([1]; ACH-2, +PMA, 0.032 μg/ml) of the same compound?
**A.** The P24 was 24,650 pg/ml.

**Q.** And the P24 ([1]; ACH-2, +PMA, 0.064 μg/ml [0.010 μM] (so in the source))?
**A.** Its P24 is 24,364 pg/ml.

**Q.** And the P24 ([1]; ACH-2, +PMA, 0.16 μg/ml)?
**A.** The P24 was 21,865 pg/ml.

**Q.** And the P24 ([1]; ACH-2, +PMA, 0.8 μg/ml)?
**A.** The P24 was 20,183 pg/ml.

**Q.** What about the P24 ([1]; ACH-2, +PMA, 4 μg/ml) of the same compound?
**A.** Its P24 is 23,547 pg/ml.

**Q.** And the P24 ([1]; ACH-2, +PMA, 20 μg/ml)?
**A.** The P24 was 24,858 pg/ml.

**Q.** And the P24 ([1]; ACH-2, -PMA, 0.0000102 μg/ml)?
**A.** Its P24 is 666 pg/mL.

**Q.** And the P24 ([1]; ACH-2, -PMA, 0.0000512 μg/ml)?
**A.** Its P24 is 659 pg/mL.

**Q.** And the P24 ([1]; ACH-2, -PMA, 0.00025 μg/ml)?
**A.** Its P24 is 777 pg/mL.

**Q.** And the P24 ([1]; ACH-2, -PMA, 0.00128 μg/ml)?
**A.** Its P24 is 811 pg/mL.

**Q.** And the P24 ([1]; ACH-2, -PMA, 0.032 μg/ml)?
**A.** The P24 was 1319 pg/mL.

**Q.** What about the P24 ([1]; ACH-2, -PMA, 0.064 μg/ml [0.010 μM] (so in the source)) of the same compound?
**A.** The P24 was 955 pg/mL.

**Q.** What about the P24 ([1]; ACH-2, -PMA, 0.16 μg/ml) of the same compound?
**A.** The P24 was 1174 pg/mL.

**Q.** And the P24 ([1]; ACH-2, -PMA, 0.8 μg/ml)?
**A.** The P24 was 976 pg/mL.

**Q.** And the P24 ([1]; ACH-2, -PMA, 4 μg/ml)?
**A.** Its P24 is 1194 pg/mL.

**Q.** What about the P24 ([1]; ACH-2, -PMA, 20 μg/ml) of the same compound?
**A.** The P24 was 1509 pg/mL.

**Q.** And the “effect on virus expression of PMA-stimulated ACH-2 cells (in words)” value ([1]; with PMA)?
**A.** The value was “did not suppress virus replication”.

**Q.** And the “induction of virus expression from ACH-2 cells (in words)” value ([1]; without PMA)?
**A.** The value was “did not induce the ACH-2 cells to make virus”.

**Q.** What about the suppression ([2]; 0.000256 μg/ml, separate assays, H9) of the same compound?
**A.** Its suppression is 35%.

**Q.** And the inhibition at 0.000256 µg/mL ([2]; Human immunodeficiency virus 1, H9, 0.000256 μg/ml, separate assays, H9, read-out: suppression)?
**A.** Its inhibition at 0.000256 µg/mL is 44%.

**Q.** What about the EC50 ([2]; Human immunodeficiency virus 1, H9, H9, text to Table 7, read-out: EC50) of the same compound?
**A.** Its EC50 is ≥ 0.000256 µg/mL and 0.41 nM.

**Q.** And the EC50 ([2]; Human immunodeficiency virus 1, H9, H9 lymphocytes, Table 3, read-out: ED^50 (the source's name))?
**A.** Its EC50 is at least 0.41 nM.

**Q.** And the EC50 ([2]; Human immunodeficiency virus 1, H9, Table 3, H9 lymphocytes, read-out: EC50)?
**A.** The EC50 was 0.41 nM.

**Q.** And the EC50 ([2]; Human immunodeficiency virus 1, H9, Table 7, read-out: EC5)?
**A.** Its EC50 is 0.000256 µg/mL and 0.41 nM.

**Q.** What about the EC50 ([2]; Human immunodeficiency virus 1, H9, Table 17, acutely infected H9 lymphocytes, read-out: EC50) of the same compound?
**A.** Its EC50 is 0.41 nM.

**Q.** And the “anti-HIV activity in H9 cells (in words)” value ([2]; acutely infected H9 cells)?
**A.** Its value is “potent anti-HIV activity”.

**Q.** And the P24 ([3]; U1, +PMA, 0.0000102 μg/ml)?
**A.** Its P24 is 7328 pg/mL.

**Q.** What about the P24 ([3]; U1, +PMA, 0.0000512 μg/ml) of the same compound?
**A.** Its P24 is 8710 pg/mL.

**Q.** And the P24 ([3]; U1, +PMA, 0.00025 μg/ml)?
**A.** Its P24 is 7757 pg/mL.

**Q.** What about the P24 ([3]; U1, +PMA, 0.00128 μg/ml) of the same compound?
**A.** The P24 was 6335 pg/mL.

**Q.** What about the P24 ([3]; U1, +PMA, 0.0064 μg/ml) of the same compound?
**A.** Its P24 is 6419 pg/mL.

**Q.** What about the P24 ([3]; U1, +PMA, 0.032 μg/ml) of the same compound?
**A.** The P24 was 8090 pg/mL.

**Q.** And the P24 ([3]; U1, +PMA, 0.16 μg/ml)?
**A.** The P24 was 7162 pg/mL.

**Q.** What about the P24 ([3]; U1, +PMA, 0.8 μg/ml) of the same compound?
**A.** Its P24 is 8390 pg/mL.

**Q.** And the P24 ([3]; U1, +PMA, 4 μg/ml)?
**A.** Its P24 is 8742 pg/mL.

**Q.** What about the P24 ([3]; U1, +PMA, 20 μg/ml) of the same compound?
**A.** Its P24 is 9530 pg/mL.

**Q.** And the P24 ([3]; U1, -PMA, 0.0000102 μg/ml)?
**A.** Its P24 is 52 pg/mL.

**Q.** What about the P24 ([3]; U1, -PMA, 0.0000512 μg/ml) of the same compound?
**A.** The P24 was 56 pg/mL.

**Q.** And the P24 ([3]; U1, -PMA, 0.00025 μg/ml)?
**A.** The P24 was 78 pg/mL.

**Q.** And the P24 ([3]; U1, -PMA, 0.00128 μg/ml)?
**A.** Its P24 is 99 pg/mL.

**Q.** What about the P24 ([3]; U1, -PMA, 0.0064 μg/ml) of the same compound?
**A.** The P24 was 90 pg/mL.

**Q.** And the P24 ([3]; U1, -PMA, 0.032 μg/ml)?
**A.** The P24 was 101 pg/mL.

**Q.** What about the P24 ([3]; U1, -PMA, 0.16 μg/ml) of the same compound?
**A.** The P24 was 76 pg/mL.

**Q.** And the P24 ([3]; U1, -PMA, 0.8 μg/ml)?
**A.** Its P24 is 88 pg/mL.

**Q.** What about the P24 ([3]; U1, -PMA, 4 μg/ml) of the same compound?
**A.** The P24 was 41 pg/mL.

**Q.** What about the P24 ([3]; U1, -PMA, 20 μg/ml) of the same compound?
**A.** Its P24 is 95 pg/mL.

**Q.** What about the “effect on virus expression of PMA-stimulated U1 cells (in words)” value ([3]; with PMA) of the same compound?
**A.** Its value is “did not suppress virus replication”.

**Q.** And the “induction of virus expression from U1 cells (in words)” value ([3]; without PMA)?
**A.** The value was “did not induce the U1 cells to make virus”.
